Data set [1] can be described thus: Packed-bed removal from zinc and copper solutions. The note with it: pH 6.5. The procedure: Copper removal experiments: To test copper removal, 10 grams of each resin (XAD, Chelex 100, and Ybt-XAD) were packed into a 2.5×10 cm glass chromatography column (Bio-Rad). The column was equilibrated with 10 bed volumes of Millipore water before loading the metal solution. The metal solution (˜5 ppm zinc and ˜1 ppm copper; pH adjusted with dilute HCl or NaOH) was pumped (LMI Milton Roy dosing pump) into the column with a continuous flow rate of 1 L/hr. Samples were collected every 30 min. The percent copper or zinc removal was calculated using the following formula: [(Ci−Cf)/Ci]×100, where Ci is the initial copper (or zinc) concentration and Cf is the final concentration. Average selectivity was defined as the ratio of average copper removal (%) to the average zinc removal (%) over the course of the experiment.

Data set [2] in a line: Copper removal experiments with Ybt-modified XAD beads (Zincon assay). The settings on record: fresh beads in three successive applications. On the procedure: (§1) Copper Removal Experiments. Copper and zinc removal assessment was completed using the Zincon assay (Sabel et al. 2010. Anal Biochem 397:218-226). Briefly, 40 μL samples (diluted if necessary to keep concentrations less than 4 ppm) were added to 200 μL of borate buffer (65.8 mM; pH=9), and the assay was initiated by adding 10 μL of Zincon solution (1.6 mM). After a five-minute incubation at 20° C., absorbance at 610 nm was measured. Standard curves for Zn and Cu were made using pure salts (Sigma-Aldrich) to allow quantification. The initial measurement provides total metal concentration (zinc and copper together) while the second measurement allows determination of the copper concentration. By subtracting the second reading from the first, zinc concentration is determined. […]
(§2) To test copper removal, 800 μL of copper solution was added to 40 mg of Ybt-modified XAD beads (or controls) and incubated at 30° C. with shaking (for sheep blood and 50% FBS RPMI samples, this temperature was 22° C.). […] The copper content of the original mixture solution and the liquid resulting from the bead washing steps was measured using the Zincon assay described above. […] The removal ability was calculated using the following equation: […]

Data set [3] in a line: Rust removal experiments (1,10-phenanthroline assay). On the procedure: Rust Removal Experiments. A rusted carbon steel tube was machine cut into U-shaped pieces (through the University at Buffalo School of Engineering and Applied Sciences Engineering Machine Shop) and each piece, after cleaning with acetone and rinsing with DI water, immersed in 10 mL Millipore water. Samples were then mixed with 250 μL of methanol or final extracts (about 0.2 mg of Ybt) derived from the larger-scale negative control or Ybt production cultures. Samples were then allowed to incubate at 30° C. with shaking for 2 hours.
Rust removal was quantified through a modification of the 1,10-phenanthroline assay to enable detection using a 96-well plate format. To each well, 40 μL of 0.3% (wt/vol) 1,10-phenanthroline, 40 μL of 1% (wt/vol) hydroxylamine hydrochloride, and 40 μL of 0.1 M ammonium acetate were mixed. […] Absorbance was measured using a microplate reader at a wavelength of 510 nm with concentration measurements determined from a calibration curve of Fe^3+ (Sigma-Aldrich).
To assess total rust removal, metal samples recovered after incubation were washed with water and immersed in a solution of 1% (wt/vol) oxalic acid for 30 minute to remove the remaining rust on the metal surface. Upon quantifying the amount of Fe^3+ removed using the 96-well plate method introduced above, percent rust removal was calculated using the following equation: […]

A short description of data set [4]: Gold-binding assay (LC-MS). The note with it: 1 mM Au(III), crude extract 2-5 μM, 2 hours at 22° C. On the procedure:
Gold-binding Assay To test Ybt or analog gold binding capability, HAuCl4 was used to generate a solution of 1 mM Au(III) in de-ionized water. To this solution, crude extract of Ybt or analog (from samples prepared without FeCl3 addition) was added at a final concentration of 2-5 μM. After incubation for 2 hours at 22° C., the solution was analyzed by LC-MS.

Data set [5] relates to red blood cell (RBC) membranes. The settings on record: 0.03 mg/mL Ybt or 50 mg/mL Ybt-XAD beads in PBS, 37° C.
Procedure: To assess potential disruption of red blood cell (RBC) membranes by Ybt samples, a hemolysis assay was modified from a protocol previously described (Jones et al. 2014. Proc Natl Acad Sci USA 111:12360-12365). Briefly, a 5% RBC solution was prepared by washing sheep blood (HemoStat Laboratories) with PBS until the supernatant became clear. Next, 100 μL of purified 5% RBC solution was incubated with 900 μL of 0.03 mg/mL crude extract Ybt samples (or controls) or 50 mg/mL Ybt-complexed XAD beads (or controls) in PBS over time at 37° C. Triton-X 100 (1% solution) was used to construct a blood lysis standard curve by altering the amount of blood added to each respective sample. For example, for 50 and 100% lysis, 50 and 100 μL of purified 5% RBC solution was mixed with 1% Triton-X (to 1 mL). PBS was used to generate negative controls. Samples were centrifuged and hemolysis quantified by measuring supernatant at 541 nm and comparing to the % blood lysis standard curve.
The conditions of data set [6]: pH 2 (10 mM HCl). The procedure: Based upon the pH removal profiles for Ybt-XAD, the column was tested for regeneration (FIG. 27). […] To select the degree of pH reduction, the Ybt compound was tested for degradation over log-fold differences in HCl concentrations (FIG. 31).
In another data set the test system is RAW264.7 cells. The procedure:
Biological Interaction Assays. Cytotoxicity resulting from Ybt samples was determined by the 3-(4, 5-dimethylthiazol-2-yl)-diphenyltetrazolium bromide (MTT) colorimetric assay. Three distinct cell lines (RAW264.7 [macrophage; provided by Dr. Terry Connell, Department of Microbiology and Immunology, University at Buffalo], HeLa [epithelial; provided by Dr. Stelios Andreadis, Department of Chemical and Biological Engineering, University of Buffalo], and NIH3T3 [fibroblast; ATCC]) were cultured in T75 flasks at 37° C./5% CO2. RAW264.7 cells were maintained in medium prepared as follows: 50 mL of FBS (heat inactivated), 5 mL of 100 mM MEM sodium pyruvate, 5 mL of 1 M HEPES buffer, 5 mL of penicillin/streptomycin solution, and 1.25 g of D-(+)-glucose added to 500 mL RPMI-1640 and filter sterilized. HeLa and NIH3T3 cells were maintained in Dulbecco's Modified Eagle Medium (DMEM; Gibco BRL, Grand Island, N.Y.) supplemented with 10% (v/v) FBS (GIBCO) and 1% (v/v) Antibiotic-Antimycotic (A/A; Gibco). […]

Data set [7] in a line: Zinc removal with Ybt-modified XAD beads (Zincon assay). The settings on record: FIG. 14D. The procedure:
as §1, §2

For the compound `CC(C)(C1=N[C@@](C)(C(=O)O)CS1)[C@H](O)[C@@H]1CSC([C@H]2CSC(c3ccccc3O)=N2)N1` (stereo partly drawn) [Ybt, yersiniabactin], the “zinc binding in fixed bed” value in data set [1] is listed as “not observed”. Besides, the “copper removal after repeated extractions” value in data set [2] is on record as roughly 100%. For the same compound, the “rust removed, of total rust” value in data set [3] (about 0.2 mg of Ybt, 30° C., 2 hours) is listed as “about 20%”. In addition, in data set [3] (relative to commercial product Rust-Oleum), the “rust removed relative to the commercial control” value is “about 40%”. In addition, the “gold binding / complex formation” value in data set [4] was “lack of complexation”. Moreover, the RBC hemolysis entry in data set [5] is “minimal concerns”. In addition, the “stability (degradation over time)” value in data set [6] was “stability”. In addition, in the data set on RAW264.7 cells, the “immunogenicity via NO production from macrophage cells” value is on record as “minimal concerns”. Also, the zinc removal capability entry in data set [7] is recorded as “no discernible capability to remove zinc”.

Values taken from US20180065940A1, “METAL-BINDING COMPOUNDS, HETEROLOGOUS PRODUCTION AND USES THEREOF” (The Research Foundation for The State University of New York, priority 2015, published 2018).
